From PubChem BioAssay (NCI)
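Each compound was tested at five concentrations against cells in 96-well plates for 48 hours. GI50: concentration for 50% inhibition of growth. TGI marks complete inhibition of growth.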

Experiments:
Test in all cases: DTP human tumour cell line panel, 48 h
[1] = system: SF-539 CNS
[2] = system: K-562 leukemia
[3] = system: LOX IMVI melanoma
[4] = system: ACHN renal
[5] = system: NCI-H226 lung
[6] = system: BT-549 breast
[7] = system: UO-31 renal
[8] = system: HCC-2998 colon
[9] = system: DU-145 prostate
[10] = system: SF-295 CNS
[11] = system: SW-620 colon
[12] = system: PC-3 prostate
[13] = system: SNB-75 CNS
[14] = system: HT29 colon
[15] = system: HOP-62 NSCLC
[16] = system: MOLT-4 leukemia
[17] = system: UACC-62 melanoma
[18] = system: HCT-116 colon
[19] = system: IGROV1 ovarian
[20] = system: SNB-19 CNS
[21] = system: SK-MEL-2 melanoma
[22] = system: NCI-H522 lung
[23] = system: HS 578T breast
[24] = system: OVCAR-5 ovarian
[25] = system: RXF 393 renal
[26] = system: OVCAR-4 ovarian
[27] = system: EKVX NSCLC
[28] = system: SN12C renal
[29] = system: OVCAR-8 ovarian
[30] = system: CCRF-CEM leukemia
[31] = system: NCI-H460 lung
[32] = system: U251 CNS
[33] = system: RPMI-8226 leukemia
[34] = system: TK-10 renal
[35] = system: A498 renal
[36] = system: MCF7 breast
[37] = system: HL-60(TB) leukemia
[38] = system: 786-0 renal
[39] = system: CAKI-1 renal
[40] = system: NCI/ADR-RES ovarian
[41] = system: A549 NSCLC
[42] = system: HCT-15 colon
[43] = system: MDA-MB-435
[44] = system: M14 melanoma
[45] = system: SR leukemia
[46] = system: T-47D breast
[47] = system: SK-MEL-5 melanoma
[48] = system: UACC-257 melanoma
[49] = system: COLO 205 colon
[50] = system: HOP-92 NSCLC
[51] = system: KM12 colon
[52] = system: NCI-H23 lung
[53] = system: SK-OV-3 ovarian
[54] = system: SF-268 CNS
[55] = system: SK-MEL-28 melanoma
[56] = system: MDA-MB-231 breast

`COc1ccc(Cn2cc3c(c2-c2cc(OC)c(OC)c(OC)c2)CCCc2cnoc2-3)cc1N` was tested, and the GI50 [1] was 426 nM, the TGI [1] was 4320 nM and the GI50 [2] was 404 nM. The TGI [2] was greater than 100000 nM, the GI50 [3] was 643 nM and the TGI [3] was greater than 100000 nM. For the same molecule, the GI50 [4] was 669 nM, the TGI [4] was greater than 100000 nM and the GI50 [5] was 1590 nM. For the same molecule, the TGI [5] was greater than 100000 nM, the GI50 [6] was 436 nM and the TGI [6] was 2730 nM. For the same molecule, the GI50 [7] was 761 nM, the TGI [7] was greater than 100000 nM and the GI50 [8] was 1670 nM. It also gave a TGI [8] greater than 32000 nM, a GI50 [9] of 1450 nM and a TGI [9] greater than 100000 nM. For the same molecule, the GI50 [10] was 468 nM, the TGI [10] was greater than 100000 nM and the GI50 [11] was 449 nM. For the same molecule, the TGI [11] was greater than 100000 nM, the GI50 [12] was 463 nM and the TGI [12] was greater than 100000 nM. It also gave a GI50 [13] of 384 nM, a TGI [13] of 9220 nM and a GI50 [14] of 442 nM. For the same molecule, the TGI [14] was greater than 100000 nM, the GI50 [15] was 814 nM and the TGI [15] was greater than 100000 nM. For the same molecule, the GI50 [16] was 1110 nM, the TGI [16] was greater than 100000 nM and the GI50 [17] was 489 nM. It also gave a TGI [17] greater than 100000 nM, a GI50 [18] of 423 nM and a TGI [18] greater than 100000 nM. The GI50 [19] was 1040 nM, the TGI [19] was greater than 100000 nM and the GI50 [20] was 734 nM. The TGI [20] was greater than 100000 nM, the GI50 [21] was 651 nM and the TGI [21] was greater than 100000 nM. The GI50 [22] was 306 nM, the TGI [22] was 1530 nM and the GI50 [23] was 404 nM. For the same molecule, the TGI [23] was 6400 nM, the GI50 [24] was 1840 nM and the TGI [24] was greater than 100000 nM. The GI50 [25] was 412 nM, the TGI [25] was 3700 nM and the GI50 [26] was 5130 nM. The TGI [26] was greater than 100000 nM, the GI50 [27] was 2430 nM and the TGI [27] was greater than 100000 nM. For the same molecule, the GI50 [28] was 1750 nM, the TGI [28] was greater than 100000 nM and the GI50 [29] was 2140 nM. For the same molecule, the TGI [29] was greater than 100000 nM, the GI50 [30] was 430 nM and the TGI [30] was greater than 100000 nM. It also gave a GI50 [31] of 410 nM, a TGI [31] greater than 100000 nM and a GI50 [32] of 768 nM. The TGI [32] was greater than 100000 nM, the GI50 [33] was 935 nM and the TGI [33] was greater than 33400 nM. It also gave a GI50 [34] of 98300 nM, a TGI [34] greater than 100000 nM and a GI50 [35] of 407 nM. For the same molecule, the TGI [35] was 2880 nM, the GI50 [36] was 392 nM and the TGI [36] was greater than 100000 nM. The GI50 [37] was 333 nM, the GI50 [38] was 823 nM and the TGI [38] was greater than 100000 nM. The GI50 [39] was 491 nM, the TGI [39] was greater than 100000 nM and the GI50 [40] was 699 nM. The TGI [40] was greater than 100000 nM, the GI50 [41] was 1450 nM and the TGI [41] was greater than 100000 nM. It also gave a GI50 [42] of 543 nM, a TGI [42] greater than 100000 nM and a GI50 [43] of 240 nM. The TGI [43] was 633 nM, the GI50 [44] was 501 nM and the TGI [44] was greater than 100000 nM. It also gave a GI50 [45] of 405 nM, a TGI [45] greater than 100000 nM and a GI50 [46] of 590 nM. It also gave a TGI [46] greater than 100000 nM, a GI50 [47] of 1010 nM and a TGI [47] greater than 37200 nM. It also gave a GI50 [48] of 578 nM, a TGI [48] greater than 100000 nM and a GI50 [49] of 532 nM. For the same molecule, the TGI [49] was 2140 nM, the GI50 [50] was 432 nM and the TGI [50] was 4820 nM. The GI50 [51] was 632 nM, the TGI [51] was greater than 100000 nM and the GI50 [52] was 1750 nM. It also gave a TGI [52] greater than 100000 nM, a GI50 [53] of 957 nM and a TGI [53] greater than 100000 nM. It also gave a GI50 [54] of 1140 nM, a TGI [54] greater than 100000 nM and a GI50 [55] of 3050 nM. The TGI [55] was greater than 67700 nM, the GI50 [56] was 1580 nM and the TGI [56] was greater than 100000 nM.
